Values quoted from earlier work as cited in article PMC8198792, “Prediction of Anticancer Peptides with High Efficacy and Low Toxicity by Hybrid Model Based on 3D Structure of Peptides” (International Journal of Molecular Sciences, 2021).
Read-outs that look alike come from different tables or passages of the source.

Columns and labels:
erythrocytes = conditions: cited from earlier work
Description: Supplement ijms-22-05630-s001.zip/Hemloytic Peptides(seguence).xlsx, sheet "HD1" | column: Activity || Supplement ijms-22-05630-s001.zip/Hemloytic Peptides(seguence).xlsx, sheet "HD2" | column: Activity || Supplement ijms-22-05630-s001.zip/Hemloytic Peptides(seguence).xlsx, sheet "HD3" | column: Activity

[1] = system: many types of cells, including non-cancer cells; conditions: cited from earlier work; for Activity: toxic peptides dataset TD2, class label 1 (toxic, positive set) or 0 (non-toxic AMP, negative set), ref SATPdb
cancer cell lines = system: cancer cell lines; design: method as in 6 sources, ref CancerPPD [45] and SATPdb ||| ref CancerPPD/SATPdb ||| ref CancerPPD, SATPdb, Swissprot (PDB) ||| ref CancerPPD/SATPdb/Swissprot(PDB) ||| ref CancerPPD / SATPdb ||| ...; conditions: cited from earlier work
Description: Supplement ijms-22-05630-s001.zip/ACPs(seguence).xlsx, sheet "D1" | column: Activity || Supplement ijms-22-05630-s001.zip/ACPs(seguence).xlsx, sheet "D2" | column: Activity || Supplement ijms-22-05630-s001.zip/ACPs(seguence).xlsx, sheet "D3" | column: Activity || (+ 2 further places)

[2] = ACPs dataset D1, 1 = ACP (positive), 0 = non-ACP (negative), label taken from databases, ref CancerPPD [45] and SATPdb
[3] = ACPs dataset D4 (sheet "D4"), label 1 = ACP (CancerPPD ID), 0 = non-ACP (non-anticancer AMP, SATPdb ID), ref CancerPPD [45] and SATPdb
[4] = ACPs dataset D3 (sheet "D3"), label 1 = ACP, 0 = non-ACP, ref CancerPPD/SATPdb
[5] = ACPs dataset D4 (sheet "D4"), label 1 = ACP, 0 = non-ACP, ref CancerPPD / SATPdb
[6] = ACPs dataset D5, sheet "D5", label 1 = ACP, 0 = non-ACP, ref CancerPPD [45] and SATPdb
[7] = ACPs dataset D3 (supplement sheet "D3"), 1 = ACP, 0 = non-ACP, ref CancerPPD [45] and SATPdb

Sequence: FFGWLIRGAIHAGKAIHGLIHRRRH [satpdb10145]
- Activity (erythrocytes): 1
- Activity [1]: 1
- Activity (cancer cell lines; [2]): 0
- Activity (cancer cell lines; [3]): 0

Sequence: FFPIVGKLLFGLSGLL [satpdb12681]
- Activity [1]: 0
- Activity (cancer cell lines; [4]): 0
- Activity (cancer cell lines; [5]): 0
- Activity (cancer cell lines; [6]): 0

Sequence: NLLGSLLKTGLKVGSNLL [satpdb11204]
- Activity [1]: 1
- Activity (cancer cell lines; [7]): 0
- Activity (cancer cell lines; [5]): 0
- Activity (cancer cell lines; [6]): 0

Sequence: FIGAILPAIAGLVGGLINR [satpdb12061]
- Activity [1]: 1
- Activity (cancer cell lines; [4]): 0
- Activity (cancer cell lines; [5]): 0
- Activity (cancer cell lines; [6]): 0

Sequence: GLWSTIKQKGKEAAIAAAKAAGQAVLNSASEAL [satpdb11971]
- Activity [1]: 0
- Activity (cancer cell lines; [4]): 0
- Activity (cancer cell lines; [5]): 0
- Activity (cancer cell lines; [6]): 0

Sequence: GILDVAKTLVGKLRNVLGI [satpdb10523]
- Activity [1]: 0
- Activity (cancer cell lines; [7]): 0
- Activity (cancer cell lines; [5]): 0
- Activity (cancer cell lines; [6]): 0

Sequence: ILPFLAGLFSKIL [satpdb10916]
- Activity [1]: 0
- Activity (cancer cell lines; [7]): 0
- Activity (cancer cell lines; [5]): 0
- Activity (cancer cell lines; [6]): 0

Sequence: GFGSVLGKALKFGANLL [satpdb10971]
- Activity [1]: 0
- Activity (cancer cell lines; [7]): 0
- Activity (cancer cell lines; [5]): 0
- Activity (cancer cell lines; [6]): 0

Sequence: GFGSLLGKALRLGANVL [satpdb12093]
- Activity [1]: 0
- Activity (cancer cell lines; [4]): 0
- Activity (cancer cell lines; [5]): 0
- Activity (cancer cell lines; [6]): 0

Sequence: WRSLGRTLLRLSHALKPLARRSGW [satpdb10596]
- Activity [1]: 0
- Activity (cancer cell lines; [7]): 0
- Activity (cancer cell lines; [5]): 0
- Activity (cancer cell lines; [6]): 0

Sequence: VOLFPFFNQY [satpdb13046]
- Activity [1]: 0
- Activity (cancer cell lines; [4]): 0
- Activity (cancer cell lines; [5]): 0
- Activity (cancer cell lines; [6]): 0

Sequence: FLWGLIPGAISAVTSLIKK [satpdb12159]
- Activity [1]: 0
- Activity (cancer cell lines; [4]): 0
- Activity (cancer cell lines; [5]): 0
- Activity (cancer cell lines; [6]): 0

Sequence: GLFSVLGSVAKHLLPHVAPIIAEKL [satpdb13391]
- Activity [1]: 0
- Activity (cancer cell lines; [4]): 0
- Activity (cancer cell lines; [5]): 0
- Activity (cancer cell lines; [6]): 0

Sequence: GIGGALLSVGKLALKGLANVLADKFAN [satpdb14012]
- Activity [1]: 1
- Activity (cancer cell lines; [4]): 0
- Activity (cancer cell lines; [5]): 0
- Activity (cancer cell lines; [6]): 0

Sequence: VIPIVSGLLSSLL [satpdb12918]
- Activity [1]: 0
- Activity (cancer cell lines; [4]): 0
- Activity (cancer cell lines; [5]): 0
- Activity (cancer cell lines; [6]): 0

Sequence: LRPAILVRIK [satpdb13588]
- Activity [1]: 0
- Activity (cancer cell lines; [4]): 0
- Activity (cancer cell lines; [5]): 0
- Activity (cancer cell lines; [6]): 0

Sequence: GFLGSLLKTGLKVGSNLL [satpdb10293]
- Activity [1]: 1
- Activity (cancer cell lines; [2]): 0
- Activity (cancer cell lines; [3]): 0

Sequence: IDWKKLLDAAKQIL [satpdb24876]
- Activity (erythrocytes; Hemolytic peptides dataset HD2, label 1 = hemolytic, 0 = non-hemolytic, ref Hemolytik/SATPdb): 0
- Activity (erythrocytes; hemolytic peptides dataset HD3, 1 = hemolytic (positive set), 0 = non-hemolytic (negative set), labels taken from databases, ref Hemolytik/SATPdb): 0
- Activity [1]: 1

Sequence: VIPFVASVAAEMMQHVYCAASKKC [satpdb10043, toxic peptide, datasets TD1 and TD3]
- Activity (dataset TD1, toxic 1 / non-toxic 0) ([1]; natural toxic peptide dataset TD1, label collected from database, ref SATPdb [34]): 1
- Activity (cancer cell lines; [2]): 0
- Activity (cancer cell lines; [3]): 0

Sequence: GLADFLNKAVGKVVDFVKS [satpdb10833]
- Activity [1]: 0
- Activity (cancer cell lines; [7]): 0
- Activity (cancer cell lines; [5]): 0
- Activity (cancer cell lines; [6]): 0

Sequence: GVVTDLLKTAGKLLGNLFGSLSG [satpdb14110]
- Activity [1]: 1
- Activity (cancer cell lines; [4]): 0
- Activity (cancer cell lines; [5]): 0
- Activity (cancer cell lines; [6]): 0

Sequence: ALALLOHALHOLALLAOHLAHOLALA [satpdb11016]
- Activity [1]: 0
- Activity (cancer cell lines; [7]): 0

Sequence: VOLFPWWNQY [satpdb13995]
- Activity [1]: 0
- Activity (cancer cell lines; [4]): 0
- Activity (cancer cell lines; [5]): 0
- Activity (cancer cell lines; [6]): 0

Sequence: ILGPVLGLVGNALGGLIKKL [satpdb12428]
- Activity [1]: 1
- Activity (cancer cell lines; [4]): 0
- Activity (cancer cell lines; [5]): 0
- Activity (cancer cell lines; [6]): 0

Sequence: ILGPVIKTIGGVIGGLLKNL [satpdb10308]
- Activity [1]: 1
- Activity (cancer cell lines; [7]): 0
- Activity (cancer cell lines; [5]): 0
- Activity (cancer cell lines; [6]): 0

Sequence: RGGRLCYCRRRFCICV [satpdb14720]
- Activity [1]: 0
- Activity (cancer cell lines; [4]): 0
- Activity (cancer cell lines; [5]): 0
- Activity (cancer cell lines; [6]): 0

Sequence: GLWSNIKTAGKEAAKAALKAAGKAALGAVTDAV [satpdb12078]
- Activity [1]: 0
- Activity (cancer cell lines; [4]): 0
- Activity (cancer cell lines; [5]): 0
- Activity (cancer cell lines; [6]): 0

Sequence: FLSTLWNAAKSIF [satpdb12345]
- Activity [1]: 1
- Activity (cancer cell lines; [4]): 0
- Activity (cancer cell lines; [5]): 0
- Activity (cancer cell lines; [6]): 0

Sequence: FLSLIPHAINAVSALANHG [satpdb14661]
- Activity [1]: 0
- Activity (cancer cell lines; [4]): 0
- Activity (cancer cell lines; [5]): 0
- Activity (cancer cell lines; [6]): 0

Sequence: KLGFENFLVKALKTVMHVPTSPLL [satpdb10107]
- Activity [1]: 1
- Activity (cancer cell lines; [7]): 0
- Activity (cancer cell lines; [5]): 0
- Activity (cancer cell lines; [6]): 0

Sequence: ACNFQSCWATCQAQHSIYFRRAFCDRSQCKCVFVRG [satpdb14312]
- Activity [1]: 0
- Activity (cancer cell lines; [4]): 0
- Activity (cancer cell lines; [5]): 0
- Activity (cancer cell lines; [6]): 0

Sequence: GWRLLLKKAEVKTVGKLALKHYL [satpdb14772]
- Activity [1]: 0
- Activity (cancer cell lines; [4]): 0
- Activity (cancer cell lines; [5]): 0
- Activity (cancer cell lines; [6]): 0

Sequence: AMWKDVLKKIGTVALHAGKAALGAVADTISQ [satpdb14434]
- Activity [1]: 0
- Activity (cancer cell lines; [4]): 0
- Activity (cancer cell lines; [5]): 0
- Activity (cancer cell lines; [6]): 0

Sequence: GLLSGILNTAGGLLGNLIGSLSN [satpdb13955]
- Activity [1]: 0
- Activity (cancer cell lines; [4]): 0
- Activity (cancer cell lines; [5]): 0
- Activity (cancer cell lines; [6]): 0

Sequence: LLSLVPHAINAVSAIAKHF [satpdb10338]
- Activity [1]: 0
- Activity (cancer cell lines; [7]): 0
- Activity (cancer cell lines; [5]): 0
- Activity (cancer cell lines; [6]): 0

Sequence: GMFTNMLKGIGKLAGQAALGAVKTLA [satpdb11616]
- Activity [1]: 0
- Activity (cancer cell lines; [7]): 0
- Activity (cancer cell lines; [5]): 0
- Activity (cancer cell lines; [6]): 0

Sequence: ILQKAVLDCLKAAGSSLSKAAITAIYNKIT [satpdb12333]
- Activity [1]: 0
- Activity (cancer cell lines; [4]): 0
- Activity (cancer cell lines; [5]): 0
- Activity (cancer cell lines; [6]): 0

Sequence: FLPILINLIHKGLL [satpdb14138]
- Activity [1]: 0
- Activity (cancer cell lines; [4]): 0
- Activity (cancer cell lines; [5]): 0
- Activity (cancer cell lines; [6]): 0

Sequence: GMASKAGSVLGKVAKVALKAAL [satpdb13618]
- Activity [1]: 0
- Activity (cancer cell lines; [4]): 0
- Activity (cancer cell lines; [5]): 0
- Activity (cancer cell lines; [6]): 0

Sequence: FASLLGKALKALAKQ [satpdb10678]
- Activity [1]: 0
- Activity (cancer cell lines; [7]): 0
- Activity (cancer cell lines; [5]): 0
- Activity (cancer cell lines; [6]): 0

Sequence: AIGSILGALAKGLPTLISWIKNR [satpdb14614]
- Activity [1]: 1
- Activity (cancer cell lines; [4]): 0
- Activity (cancer cell lines; [5]): 0
- Activity (cancer cell lines; [6]): 0

Sequence: GLLDALSGILGL [satpdb12939]
- Activity [1]: 0
- Activity (cancer cell lines; [4]): 0
- Activity (cancer cell lines; [5]): 0
- Activity (cancer cell lines; [6]): 0

Sequence: HFLGTLVNLAKKIL [satpdb13929]
- Activity [1]: 1
- Activity (cancer cell lines; [4]): 0
- Activity (cancer cell lines; [5]): 0
- Activity (cancer cell lines; [6]): 0

Sequence: GLLGPLLKIAAKVGSNLL [satpdb10126]
- Activity (erythrocytes): 1
- Activity [1]: 1

Sequence: FLPIAGKLLSGLSGLL [satpdb12964]
- Activity [1]: 0
- Activity (cancer cell lines; [4]): 0
- Activity (cancer cell lines; [5]): 0
- Activity (cancer cell lines; [6]): 0

Sequence: RADTQTYQPYNKDWIKEKIYVLLRRQAQQAGK [satpdb14189]
- Activity [1]: 0
- Activity (cancer cell lines; [4]): 0
- Activity (cancer cell lines; [5]): 0
- Activity (cancer cell lines; [6]): 0

Sequence: FLPLLVGAISSILPKIF [satpdb12883]
- Activity [1]: 1
- Activity (cancer cell lines; [4]): 0
- Activity (cancer cell lines; [5]): 0
- Activity (cancer cell lines; [6]): 0

Sequence: GRLQAFLAKMKEIAAQTL [satpdb13649]
- Activity [1]: 0
- Activity (cancer cell lines; [4]): 0
- Activity (cancer cell lines; [5]): 0
- Activity (cancer cell lines; [6]): 0

Sequence: ILGAILPLVSGLLSNKL [satpdb12884]
- Activity [1]: 0
- Activity (cancer cell lines; [4]): 0
- Activity (cancer cell lines; [5]): 0
- Activity (cancer cell lines; [6]): 0

Sequence: VOLFPVOLFP [satpdb12868]
- Activity [1]: 0
- Activity (cancer cell lines; [4]): 0
- Activity (cancer cell lines; [5]): 0
- Activity (cancer cell lines; [6]): 0

Sequence: FLGLLPSIVSGAVSLVKKL [satpdb10320]
- Activity [1]: 0
- Activity (cancer cell lines; [7]): 0
- Activity (cancer cell lines; [5]): 0
- Activity (cancer cell lines; [6]): 0

Sequence: FIGAVAGLLSKIF [satpdb10850]
- Activity [1]: 1
- Activity (cancer cell lines; [7]): 0
- Activity (cancer cell lines; [5]): 0
- Activity (cancer cell lines; [6]): 0

Sequence: KFGKIVGKVLKQLKKVSAVAKVAMKKG [satpdb11425]
- Activity [1]: 1
- Activity (cancer cell lines; [7]): 0
- Activity (cancer cell lines; [5]): 0
- Activity (cancer cell lines; [6]): 0
